{
  "source": "ChEMBL document CHEMBL1139448",
  "about": "“Synthesis and antibacterial activity of 7-(substituted)aminomethyl quinolones” (2004)",
  "assay_type_in_all_cases": "functional",
  "key": {"Citrobacter freundii": {"test_system": "Citrobacter freundii", "test": "In vitro antibacterial activity against gram-negative Citrobacter freundii"}, "Shigella boydii": {"test_system": "Shigella boydii", "test": "In vitro antibacterial activity against gram-negative Shigella boydii"}, "Streptococcus pneumoniae": {"test_system": "Streptococcus pneumoniae", "test": "In vitro antibacterial activity against gram-positive Streptococcus pneumoniae"}, "Staphylococcus aureus": {"test_system": "Staphylococcus aureus", "test": "In vitro antibacterial activity against gram-positive Staphylococcus aureus"}, "[1]": {"test_system": "Staphylococcus epidermidis", "test": "In vitro antibacterial activity against gram-positive Staphylococcus epidermidis"}, "Klebsiella pneumoniae": {"test_system": "Klebsiella pneumoniae", "test": "In vitro antibacterial activity against gram-negative Klebsiella pneumoniae"}},
  "data": [
    {"smiles": "CC(C)NCc1c(F)cc2c(=O)c(C(=O)O)cn(C3CC3)c2c1F.Cl", "values": [
      {"measurement": "MIC", "setting": "Citrobacter freundii", "result": 0.098, "unit": "µg/mL"},
      {"measurement": "MIC", "setting": "Shigella boydii", "result": 0.195, "unit": "µg/mL"},
      {"measurement": "MIC", "setting": "Streptococcus pneumoniae", "result": 1.56, "unit": "µg/mL"},
      {"measurement": "MIC", "setting": "Staphylococcus aureus", "result": "> 6.25", "unit": "µg/mL"},
      {"measurement": "MIC", "setting": "[1]", "result": "> 6.25", "unit": "µg/mL"},
      {"measurement": "MIC", "setting": "Klebsiella pneumoniae", "result": 0.098, "unit": "µg/mL"}
    ]},
    {"smiles": "Cl.O=C(O)c1cn(C2CC2)c2c(F)c(CN3CCNCC3)c(F)cc2c1=O", "values": [
      {"measurement": "MIC", "setting": "Citrobacter freundii", "result": 0.195, "unit": "µg/mL"}
    ]},
    {"smiles": "CCNCc1c(F)cc2c(=O)c(C(=O)O)cn(C3CC3)c2c1F.Cl", "values": [
      {"measurement": "MIC", "setting": "Citrobacter freundii", "result": "≤ 0.049", "unit": "µg/mL"}
    ]},
    {"smiles": "Cc1ccc(NCc2c(F)cc3c(=O)c(C(=O)O)cn(C4CC4)c3c2F)cc1.Cl", "values": [
      {"measurement": "MIC", "setting": "Citrobacter freundii", "result": 0.78, "unit": "µg/mL"}
    ]},
    {"smiles": "Cl.O=C(O)c1cn(C2CC2)c2c(F)c(CNc3ccc(F)cc3)c(F)cc2c1=O", "values": [
      {"measurement": "MIC", "setting": "Citrobacter freundii", "result": 0.39, "unit": "µg/mL"}
    ]},
    {"smiles": "Cl.O=C(O)c1cn(C2CC2)c2c(F)c(CNC3CC3)c(F)cc2c1=O", "values": [
      {"measurement": "MIC", "setting": "Citrobacter freundii", "result": "≤ 0.049", "unit": "µg/mL"}
    ]},
    {"smiles": "Cc1cc(C)nc(NCc2c(F)cc3c(=O)c(C(=O)O)cn(C4CC4)c3c2F)c1.Cl", "values": [
      {"measurement": "MIC", "setting": "Citrobacter freundii", "result": 0.78, "unit": "µg/mL"}
    ]},
    {"smiles": "O=C(O)c1cn(C2CC2)c2c(F)c(N3CCNCC3)c(F)cc2c1=O", "values": [
      {"measurement": "MIC", "setting": "Citrobacter freundii", "result": 0.049, "unit": "µg/mL"},
      {"measurement": "MIC", "setting": "Shigella boydii", "result": 0.049, "unit": "µg/mL"},
      {"measurement": "MIC", "setting": "Streptococcus pneumoniae", "result": 0.049, "unit": "µg/mL"},
      {"measurement": "MIC", "setting": "Staphylococcus aureus", "result": 0.195, "unit": "µg/mL"},
      {"measurement": "MIC", "setting": "[1]", "result": 0.39, "unit": "µg/mL"},
      {"measurement": "MIC", "setting": "Klebsiella pneumoniae", "result": 0.049, "unit": "µg/mL"}
    ]},
    {"smiles": "CN1CCN(Cc2c(F)cc3c(=O)c(C(=O)O)cn(C4CC4)c3c2F)CC1.Cl", "values": [
      {"measurement": "MIC", "setting": "Citrobacter freundii", "result": 1.56, "unit": "µg/mL"}
    ]},
    {"smiles": "CCn1cc(C(=O)O)c(=O)c2cc(F)c(N3CCNC(C)C3)c(F)c21", "note": "(centres undefined) [LOMEFLOXACIN]", "values": [
      {"measurement": "MIC", "setting": "Citrobacter freundii", "result": 0.098, "unit": "µg/mL"},
      {"measurement": "MIC", "setting": "Shigella boydii", "result": 0.098, "unit": "µg/mL"},
      {"measurement": "MIC", "setting": "Streptococcus pneumoniae", "result": 0.195, "unit": "µg/mL"},
      {"measurement": "MIC", "setting": "Staphylococcus aureus", "result": 0.78, "unit": "µg/mL"},
      {"measurement": "MIC", "setting": "[1]", "result": 0.78, "unit": "µg/mL"},
      {"measurement": "MIC", "setting": "Klebsiella pneumoniae", "result": 0.098, "unit": "µg/mL"}
    ]},
    {"smiles": "CCCCNCc1c(F)cc2c(=O)c(C(=O)O)cn(C3CC3)c2c1F.Cl", "values": [
      {"measurement": "MIC", "setting": "Citrobacter freundii", "result": 0.098, "unit": "µg/mL"}
    ]},
    {"smiles": "Cl.O=C(O)c1cn(C2CC2)c2c(F)c(CNc3cccc(Cl)c3)c(F)cc2c1=O", "values": [
      {"measurement": "MIC", "setting": "Citrobacter freundii", "result": 1.56, "unit": "µg/mL"}
    ]},
    {"smiles": "Cc1ccc(NCc2c(F)cc3c(=O)c(C(=O)O)cn(C4CC4)c3c2F)cc1C.Cl", "values": [
      {"measurement": "MIC", "setting": "Citrobacter freundii", "result": 1.56, "unit": "µg/mL"}
    ]},
    {"smiles": "Cl.O=C(O)c1cn(C2CC2)c2c(F)c(CNc3ccccc3)c(F)cc2c1=O", "values": [
      {"measurement": "MIC", "setting": "Citrobacter freundii", "result": 0.39, "unit": "µg/mL"}
    ]},
    {"smiles": "Cl.O=C(O)c1cn(C2CC2)c2c(F)c(CNc3ccc(Cl)cc3)c(F)cc2c1=O", "values": [
      {"measurement": "MIC", "setting": "Citrobacter freundii", "result": 1.56, "unit": "µg/mL"}
    ]},
    {"smiles": "Cl.NCc1c(F)cc2c(=O)c(C(=O)O)cn(C3CC3)c2c1F", "values": [
      {"measurement": "MIC", "setting": "Citrobacter freundii", "result": 0.098, "unit": "µg/mL"},
      {"measurement": "MIC", "setting": "Shigella boydii", "result": 0.098, "unit": "µg/mL"},
      {"measurement": "MIC", "setting": "Streptococcus pneumoniae", "result": 0.78, "unit": "µg/mL"},
      {"measurement": "MIC", "setting": "Staphylococcus aureus", "result": 12.5, "unit": "µg/mL"},
      {"measurement": "MIC", "setting": "[1]", "result": 12.5, "unit": "µg/mL"},
      {"measurement": "MIC", "setting": "Klebsiella pneumoniae", "result": 0.098, "unit": "µg/mL"}
    ]},
    {"smiles": "Cl.O=C(O)c1cn(C2CC2)c2c(F)c(CNc3ccc(F)c(Cl)c3)c(F)cc2c1=O", "values": [
      {"measurement": "MIC", "setting": "Citrobacter freundii", "result": 0.78, "unit": "µg/mL"}
    ]},
    {"smiles": "CN[C@H](CC(C)C)C(=O)N[C@H]1C(=O)N[C@@H](CC(N)=O)C(=O)N[C@H]2C(=O)N[C@H]3C(=O)N[C@H](C(=O)N[C@H](C(=O)O)c4cc(O)cc(O)c4-c4cc3ccc4O)[C@H](O)c3ccc(c(Cl)c3)Oc3cc2cc(c3O[C@@H]2O[C@H](CO)[C@@H](O)[C@H](O)[C@H]2O[C@H]2C[C@](C)(N)[C@H](O)[C@H](C)O2)Oc2ccc(cc2Cl)[C@H]1O", "note": "[VANCOMYCIN]", "values": [
      {"measurement": "MIC", "setting": "Citrobacter freundii", "result": "> 6.25", "unit": "µg/mL"}
    ]},
    {"smiles": "CCCNCc1c(F)cc2c(=O)c(C(=O)O)cn(C3CC3)c2c1F.Cl", "values": [
      {"measurement": "MIC", "setting": "Citrobacter freundii", "result": 0.195, "unit": "µg/mL"}
    ]}
  ]
}
